Measured values as given in patent US20100029752A1, “NOVEL COMPOUNDS, PHARMACEUTICAL COMPOSITIONS CONTAINING SAME, AND METHODS OF USE FOR SAME” (priority 2005, published 2010).
Converted amounts (≈) assume the structure as drawn. Like-named read-outs stand apart in the source and are kept apart here.

Tests used:
[1] = tested on: Pseudomonas aeruginosa (ATCC # 27853); experiment: Broth microdilution MIC, P. aeruginosa; format: cell-based; conditions: for PSAE/MH (MIC): Mueller Hinton Broth
Experimental: (§1) A broth microdilution assay is used to assess the antimicrobial activity of the compounds. […] Microorganisms tested include Staphylococcus aureus (ATCC # 29213), Enterococcus faecalis (ATCC # 29212), Pseudomonas aeruginosa (ATCC # 27853), and Escherichia coli (ATCC # 25922). The assay is performed in two growth media, Mueller Hinton Broth and Trypticase Soy Broth. A blood (Tsoy/5% sheep blood) agar plate is inoculated from frozen stocks maintained in T soy broth containing 10% glycerol and incubated overnight at 37° C. Colonies are suspended in sterile broth so that the turbidity matches the turbidity of a 0.5 McFarland standard. The inoculum is diluted 1:10 in sterile broth (Mueller Hinton or Trypticase soy) and 195 ul is dispensed per well of a 96-well plate. The compounds to be tested, dissolved in DMSO, are added to the wells in 5 ul volume at the following concentrations: 25, 12.5, 6.25, 3.125, 1.56 and 0.78 ug/ml in duplicate. Additional concentrations are tested if required. 5 ul of DMSO added to duplicate wells are the vehicle control. Serial dilutions of positive control compounds, vancomycin (E. faecalis and S. aureus) and tobramycin (E. coli and P. aeruginosa), are included in each run. After 24 hours of incubation at 37° C., plates are read at OD600 on a Molecular Devices SpectraMax Plus Spectrophotometer. Average OD600 values are computed using SOFTmax Pro Software (Molecular Devices) and MIC values are determined by linear regression analysis using Prism version 3.02 (Graph Pad Software, San Diego). The MIC is defined as the concentration of compound required to produce an OD600 reading equivalent to 10% of the vehicle control reading.

[2] = tested on: Escherichia coli (ATCC # 25922); experiment: Broth microdilution MIC, E. coli; format: cell-based; conditions: for MIC: Escherichia coli, ATCC25922
Experimental: as §1

[3] = tested on: Staphylococcus aureus (ATCC # 29213); experiment: Broth microdilution MIC, S. aureus; format: cell-based; conditions: for MIC: Staphylococcus aureus, ATCC29213
Experimental: as §1

[4] = tested on: Enterococcus faecalis (ATCC # 29212); experiment: Broth microdilution MIC, E. faecalis; format: cell-based; conditions: for MIC: Enterococcus faecalis, ATCC29212
Experimental: as §1

[5] = molecular target: T1, FAS (Homo sapiens, UniProt P49327); experiment: FAS (IC50) marked (SB); format: biochemical; conditions: value marked (SB), not defined
T1 construct: Human FAS was purified from cultured ZR-75-1 human breast cancer cells; endogenous in cells
T1 sequence (P49327 whole entry): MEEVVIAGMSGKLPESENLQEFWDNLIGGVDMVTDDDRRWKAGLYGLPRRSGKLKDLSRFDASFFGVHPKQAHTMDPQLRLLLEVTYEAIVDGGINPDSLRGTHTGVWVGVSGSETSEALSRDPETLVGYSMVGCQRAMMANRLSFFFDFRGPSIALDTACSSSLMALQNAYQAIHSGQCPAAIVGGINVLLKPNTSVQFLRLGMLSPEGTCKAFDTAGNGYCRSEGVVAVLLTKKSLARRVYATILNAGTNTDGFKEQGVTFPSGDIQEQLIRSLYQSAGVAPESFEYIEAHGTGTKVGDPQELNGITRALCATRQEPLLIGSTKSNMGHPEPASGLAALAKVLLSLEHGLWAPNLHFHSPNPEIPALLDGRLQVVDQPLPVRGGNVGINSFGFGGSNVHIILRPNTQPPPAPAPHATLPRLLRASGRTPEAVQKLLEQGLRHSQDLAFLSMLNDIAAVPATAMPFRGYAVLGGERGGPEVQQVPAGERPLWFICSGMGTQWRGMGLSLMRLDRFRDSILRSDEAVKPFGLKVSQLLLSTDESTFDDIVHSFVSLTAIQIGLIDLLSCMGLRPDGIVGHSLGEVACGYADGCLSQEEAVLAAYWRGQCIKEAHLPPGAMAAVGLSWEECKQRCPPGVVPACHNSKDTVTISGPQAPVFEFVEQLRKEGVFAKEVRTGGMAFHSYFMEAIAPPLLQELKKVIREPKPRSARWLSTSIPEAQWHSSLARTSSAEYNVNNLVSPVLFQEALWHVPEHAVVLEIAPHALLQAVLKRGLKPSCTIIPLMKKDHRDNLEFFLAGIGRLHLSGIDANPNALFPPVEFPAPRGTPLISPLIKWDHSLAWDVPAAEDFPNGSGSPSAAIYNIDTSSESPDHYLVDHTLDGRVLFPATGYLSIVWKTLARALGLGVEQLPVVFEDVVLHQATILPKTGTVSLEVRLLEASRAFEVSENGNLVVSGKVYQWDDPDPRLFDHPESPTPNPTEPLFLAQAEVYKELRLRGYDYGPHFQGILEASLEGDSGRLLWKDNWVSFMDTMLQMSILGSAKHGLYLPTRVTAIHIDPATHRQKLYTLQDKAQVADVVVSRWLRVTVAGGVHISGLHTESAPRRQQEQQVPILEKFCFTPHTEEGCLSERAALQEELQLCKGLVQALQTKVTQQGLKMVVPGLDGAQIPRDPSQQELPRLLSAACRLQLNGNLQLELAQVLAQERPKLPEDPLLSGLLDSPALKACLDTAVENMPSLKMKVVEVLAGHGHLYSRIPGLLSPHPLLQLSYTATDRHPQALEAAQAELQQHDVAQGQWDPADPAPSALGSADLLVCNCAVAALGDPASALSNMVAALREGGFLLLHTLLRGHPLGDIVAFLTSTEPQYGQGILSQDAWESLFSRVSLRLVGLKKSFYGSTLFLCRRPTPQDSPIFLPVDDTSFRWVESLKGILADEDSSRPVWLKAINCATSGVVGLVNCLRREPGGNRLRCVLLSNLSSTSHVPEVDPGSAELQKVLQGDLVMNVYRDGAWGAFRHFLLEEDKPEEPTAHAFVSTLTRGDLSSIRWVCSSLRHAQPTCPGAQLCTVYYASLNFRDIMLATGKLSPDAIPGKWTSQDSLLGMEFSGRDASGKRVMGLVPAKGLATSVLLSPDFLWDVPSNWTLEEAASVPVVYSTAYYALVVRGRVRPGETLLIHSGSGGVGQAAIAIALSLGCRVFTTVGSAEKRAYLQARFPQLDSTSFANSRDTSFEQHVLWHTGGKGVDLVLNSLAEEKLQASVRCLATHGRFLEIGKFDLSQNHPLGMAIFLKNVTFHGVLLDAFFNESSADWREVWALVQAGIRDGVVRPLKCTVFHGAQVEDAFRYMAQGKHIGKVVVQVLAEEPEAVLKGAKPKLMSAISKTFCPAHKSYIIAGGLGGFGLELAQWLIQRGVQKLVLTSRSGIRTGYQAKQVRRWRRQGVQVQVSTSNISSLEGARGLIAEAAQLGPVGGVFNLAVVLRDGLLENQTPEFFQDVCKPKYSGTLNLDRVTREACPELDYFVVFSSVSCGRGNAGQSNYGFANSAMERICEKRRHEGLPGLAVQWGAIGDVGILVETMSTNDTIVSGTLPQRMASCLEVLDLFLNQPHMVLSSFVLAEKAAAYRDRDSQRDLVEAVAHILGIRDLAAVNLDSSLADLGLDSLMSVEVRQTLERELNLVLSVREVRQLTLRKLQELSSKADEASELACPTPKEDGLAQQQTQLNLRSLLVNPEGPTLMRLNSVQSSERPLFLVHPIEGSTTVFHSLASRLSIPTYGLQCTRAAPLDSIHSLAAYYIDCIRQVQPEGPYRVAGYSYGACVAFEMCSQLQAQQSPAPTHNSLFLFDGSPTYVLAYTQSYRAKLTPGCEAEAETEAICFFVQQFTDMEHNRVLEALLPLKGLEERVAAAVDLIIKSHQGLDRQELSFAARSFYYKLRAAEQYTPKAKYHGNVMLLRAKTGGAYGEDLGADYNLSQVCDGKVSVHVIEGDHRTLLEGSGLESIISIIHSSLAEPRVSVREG

[6] = Mueller Hinton Broth, read-out: SA/MH (MIC)
[7] = Mueller Hinton Broth, read-out: EF/MH (MIC)
[8] = Trypticase Soy Broth, read-out: EF/Tsoy (MIC)

PSAE/MH (MIC) [1] | PSAE/Tsoy (MIC) ([1]; Trypticase Soy Broth) | Ecoli/MH (MIC) ([2]; Mueller Hinton Broth) | Ecoli/Tsoy (MIC) ([2]; Trypticase Soy Broth) | MIC [3, 6] | SA/Tsoy (MIC) ([3]; Trypticase Soy Broth) | MIC [4, 7] | EF/Tsoy (MIC) ([4]; Trypticase Soy Broth) | SA/MH (MIC) ([3]; Mueller Hinton Broth) | EF/MH (MIC) ([4]; Mueller Hinton Broth) | MIC [4, 8] | MIC ([2]; Mueller Hinton Broth, read-out: Ecoli/MH (MIC)) | MIC ([3]; Trypticase Soy Broth, read-out: SA/Tsoy (MIC)) | IC50 [5] | MIC ([1]; Pseudomonas aeruginosa, ATCC27853, Trypticase Soy Broth, read-out: PSAE/Tsoy (MIC)) | MIC ([2]; Trypticase Soy Broth, read-out: Ecoli/Tsoy (MIC)) | SMILES
Neg | Neg | Neg | Neg | 149 µg/mL (≈ 737 µM) | Neg | 101 µg/mL (≈ 500 µM) | Neg |  |  |  |  |  |  |  |  | COC(=O)c1sc(C(=O)O)cc1O
Neg | Neg | Neg | Neg |  | Neg |  | Neg | Neg | Neg |  |  |  |  |  |  | CCCCCCCCNC(=O)c1cc(O)c(C(=O)OC)s1
Neg | Neg | Neg | Neg | 80 µg/mL (≈ 332 µM) | Neg | 88 µg/mL (≈ 365 µM) |  |  |  | 134 µg/mL (≈ 555 µM) |  |  |  |  |  | C=CCNC(=O)c1cc(O)c(C(=O)OC)s1
Neg | Neg |  | Neg | 66 µg/mL (≈ 202 µM) |  |  | Neg |  | Neg |  | 136 µg/mL (≈ 416 µM) | 227 µg/mL (≈ 695 µM) | 305 µM |  |  | COC(=O)c1sc(C(=O)NNc2ccc(Cl)cc2)cc1O
Neg | (MIC) Neg | Neg |  | 82 µg/mL (≈ 321 µM) | Neg |  |  |  | Neg | 123 µg/mL (≈ 482 µM) |  |  | 325 µM | 83 µg/mL (≈ 325 µM) | 89 µg/mL (≈ 348 µM) | CCCCCCCCNC(=O)c1cc(O)cs1
